Converted amounts (≈) assume the structure as drawn.
Test system: Staphylococcus epidermidis TB-172
Assay: MIC by agar dilution method
Type: cell-based
Settings: TB172, tobramycin resistant strain, innoculum size 10^4 CFU/ml, 37° C., 18 to 20 hours, read-out: Minimum Inhibitory Concentration (MIC)

Row | SMILES | MIC [µg/mL]
1 | NC[C@H]1O[C@H](O[C@H]2[C@H](O)[C@@H](O[C@H]3O[C@H](CO)[C@@H](O)[C@H](N)[C@H]3O)[C@H](N)C[C@@H]2N)[C@H](N)C[C@@H]1O [TOB, tobramycin] | 25 (≈ 53.5 µM)
2 | NCC1=CC[C@@H](N)[C@@H](O[C@H]2[C@H](O)[C@@H](O[C@H]3O[C@H](CO)[C@@H](O)[C@H](N)[C@H]3O)[C@H](N)C[C@@H]2N)O1 [[A], O-[3-amino-3-deoxy-α-D-glucopyranosyl-(1→6)]-O-[2,6-diamino-2,3,4,6-tetradeoxy-α-D-glycero-hex-4-enopyranosyl-(1→4)]-2-deoxy-D-streptamine] | 0.1 (≈ 0.222 µM)

From patent US4273923A, “Process for preparing aminoglycoside derivatives” (Shionogi & Co., Ltd., priority 1979, dated 1981)
